DC50 data for 27 compounds are collected here from patent US20250051338A1, “TYK2 DEGRADERS AND USES THEREOF” (Kymera Therapeutics, Inc., priority 2021, published 2025).

The structures appear in SMILES notation.

Common to all, as to assay type: cell-based
Test [1] has as its target T1, TYK2 (Homo sapiens, UniProt P29597). Put plainly: TYK2 degradation MSD assay in OCI-LY10 cells. Further details: endogenous in cells; host or cells: EBV-B cells. The following applies: 4 to 24 hours incubation, read-out: TYK2 MSD DC50 rating in OCI-LY10. The procedure: (§1) Example 3. TYK2 Degradation MSD Assay in EBV-B, OCI-LY10, and Human PBMC Cells
(§2) Degradation of TYK2 in cells was quantitatively measured using Meso Scale Discovery (MSD) technology. EBV-B, OCI-LY10 or human PBMC cells were seeded in 96-well plates with a density of 0.4 million cells per well in 100 μl fresh media. Compounds were then added to the assay plates with a final top concentration of 1 to 10 μM in a 1:3 dilution series with total of 9 doses. The assay plates were then incubated for 4 to 24 hours at 37° C. under 5% CO2. The assay plates were then centrifuged for 5 minutes, and the cell pellets were treated with 100 μl/well RIPA lysis buffer (Boston Bioproducts, BP-115D) with protease and phosphatase inhibitors (Roche, 05892791001 and 04906837001). To prepare MSD assay plates (MSD, L15XA), the plates were coated with the capture antibody (Santa Cruz Biotechnology, SC-5271) in PBS, at 40 μl/well. The plates were then incubated overnight at 4° C., washed 3 times with 150 μl/well TBST buffer (Cell Signaling Technology, 9997S) and blocked with 150 μl/well blocking buffer (MSD, R93BA-4). Cell lysates were then added to MSD assay plates and the plates were incubated at room temperature for 1 hour. The plates were then washed 3 times with 150 μl/well TBST buffer and 25 μl/well primary detection antibody (Cell Signaling Technology, #9312). The assay plates were then incubated at room temperature for 1 hour, washed 3 times with 150 μl/well TBST buffer, and 25 μl/well secondary detection antibody, SULFO-TAG anti-rabbit antibody (MSD, R32AB-1) were added. The assay plates were then incubated at room temperature for 1 hour, washed 3 times with 150 μl/well TBST buffer, and 150 μl/well MSD reading buffer (MSD, R92TC-2) were added. The plates were then analyzed by an MSD reader. The data was analyzed by GraphPad Prism and the dose dependent TYK2 degradation was fit using the four-parameter inhibitor vs. response nonlinear regression. The DC50 data were measured and categorized into different levels in Table H. The compound with DC50 less than or equal to 1 nM is marked as A, with DC50 more than 1 nM and less than or equal to 10 nM is marked as B, with DC50 more than 10 nM and less than or equal to 100 nM is marked as C, and with DC50 more than 100 nM or not available is marked as D.

Test [2] deals with T1, TYK2. Briefly: TYK2 degradation MSD assay in EBV-B cells. Further details: endogenous in cells; host or cells: EBV-B cells. Conditions: 4 to 24 hours incubation, read-out: TYK2 MSD DC50 rating in EBV-B. How it is done:
as §1, §2

Test [3] concerns the target T1, TYK2. Briefly: TYK2 degradation MSD assay in human PBMC cells. Further details: endogenous in cells; host or cells: human PBMC. The following applies: 4 to 24 hours incubation, read-out: TYK2 MSD DC50 rating in human PBMC. The procedure:
as §1, §2

A word on the DC50: it is the concentration giving 50% degradation.

T1 sequence (P29597 whole entry): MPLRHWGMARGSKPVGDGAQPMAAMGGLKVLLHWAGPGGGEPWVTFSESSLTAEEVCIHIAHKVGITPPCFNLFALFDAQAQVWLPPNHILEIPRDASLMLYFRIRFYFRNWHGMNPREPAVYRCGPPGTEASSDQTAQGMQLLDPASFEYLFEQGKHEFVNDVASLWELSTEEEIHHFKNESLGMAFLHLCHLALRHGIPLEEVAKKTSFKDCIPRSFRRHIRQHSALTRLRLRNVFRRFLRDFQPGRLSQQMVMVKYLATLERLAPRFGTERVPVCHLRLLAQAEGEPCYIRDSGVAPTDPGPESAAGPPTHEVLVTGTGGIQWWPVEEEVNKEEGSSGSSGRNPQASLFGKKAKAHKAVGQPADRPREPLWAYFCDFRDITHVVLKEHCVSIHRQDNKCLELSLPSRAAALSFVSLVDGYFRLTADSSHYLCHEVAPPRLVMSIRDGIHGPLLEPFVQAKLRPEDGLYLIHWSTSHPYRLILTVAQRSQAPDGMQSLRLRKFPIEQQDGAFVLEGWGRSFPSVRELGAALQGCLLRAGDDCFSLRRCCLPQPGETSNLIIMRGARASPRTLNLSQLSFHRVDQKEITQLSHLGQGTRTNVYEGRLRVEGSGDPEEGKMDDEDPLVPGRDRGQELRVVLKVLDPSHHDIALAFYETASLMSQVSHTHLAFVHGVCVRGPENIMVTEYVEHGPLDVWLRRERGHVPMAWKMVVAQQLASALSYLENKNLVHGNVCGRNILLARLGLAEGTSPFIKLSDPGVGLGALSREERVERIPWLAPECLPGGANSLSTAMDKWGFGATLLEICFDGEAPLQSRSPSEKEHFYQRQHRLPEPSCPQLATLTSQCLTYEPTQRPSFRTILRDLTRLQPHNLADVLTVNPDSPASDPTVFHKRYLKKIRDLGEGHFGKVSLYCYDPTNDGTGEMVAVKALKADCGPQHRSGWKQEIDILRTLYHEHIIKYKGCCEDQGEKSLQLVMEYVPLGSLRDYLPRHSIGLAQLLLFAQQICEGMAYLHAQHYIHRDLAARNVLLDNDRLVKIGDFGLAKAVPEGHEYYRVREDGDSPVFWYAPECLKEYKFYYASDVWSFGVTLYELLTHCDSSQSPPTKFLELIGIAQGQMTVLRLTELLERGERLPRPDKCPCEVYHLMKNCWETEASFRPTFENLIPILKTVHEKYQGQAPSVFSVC

As to `CNC(=O)c1cnc(NC(=O)NCCCCCCc2cccc3c2n(C)c(=O)n3C2CCC(=O)NC2=O)cc1Nc1cccc(-c2ncc(F)cn2)c1OC` (stereo not drawn) [Example K106], the DC50 at TYK2 [1], at TYK2 [2] and at TYK2 [3] was > 100 nM throughout.

On to `CNC(=O)c1cnc(Nc2ccc(C(=O)NCCCCc3ccc4c(c3)n(C)c(=O)n4C3CCC(=O)NC3=O)cn2)cc1Nc1cccc(-c2ncc(F)cn2)c1OC` (stereo not drawn) [Example K107], for which the DC50 at TYK2 [1] was > 100 nM; at TYK2 [2], > 100 nM; at TYK2 [3], < 1 nM.

For `CNC(=O)c1cnc(Nc2ccc(C(=O)NCCCCCCc3ccc4c(c3)n(C)c(=O)n4C3CCC(=O)NC3=O)cn2)cc1Nc1cccc(-c2ncc(F)cn2)c1OC` (stereo not drawn) [Example K110], the DC50 at TYK2 [1] is > 100 nM; at TYK2 [2], > 100 nM; at TYK2 [3], < 1 nM.

For the compound `CNC(=O)c1cnc(Nc2ccc(C(=O)NCCCCCCCCc3ccc4c(c3)n(C)c(=O)n4C3CCC(=O)NC3=O)cn2)cc1Nc1cccc(-c2ncc(F)cn2)c1OC` (stereo not drawn) [Example K111], the results for the DC50 on TYK2 [1], on TYK2 [2] and at TYK2 [3] were > 100 nM, 1 to 10 nM and < 1 nM, respectively.

Turning to `CNC(=O)c1cnc(Nc2ccc(C(=O)NCCOCCOCCc3ccc4c(c3)n(C)c(=O)n4C3CCC(=O)NC3=O)cn2)cc1Nc1cccc(-c2ncc(F)cn2)c1OC` (stereo not drawn) [Example K112], the half-maximal degradation concentration (DC50) on TYK2 [1] was > 100 nM; on TYK2 [2] it was 1 to 10 nM; at TYK2 [3] it was 1 to 10 nM.

Consider `CNC(=O)c1cnc(Nc2ccc(C(=O)NCCOCCOCCOCCOCCc3ccc4c(c3)n(C)c(=O)n4C3CCC(=O)NC3=O)cn2)cc1Nc1cccc(-c2ncc(F)cn2)c1OC` (stereo not drawn) [Example K113], for which the DC50 on TYK2 [1] is > 100 nM; at TYK2 [2], > 100 nM; on TYK2 [3] it was 1 to 10 nM.

In the case of `CNC(=O)c1cnc(Nc2ccc(C(=O)NCCCCc3cccc4c3n(C)c(=O)n4C3CCC(=O)NC3=O)cn2)cc1Nc1cccc(-c2ncc(F)cn2)c1OC` (stereo not drawn) [Example K114], the DC50 is < 1 nM on TYK2 [1], 1 to 10 nM at TYK2 [2] and < 1 nM at TYK2 [3].

On to `CNC(=O)c1cnc(Nc2ccc(C(=O)NCCCCCCc3cccc4c3n(C)c(=O)n4C3CCC(=O)NC3=O)cn2)cc1Nc1cccc(-c2ncc(F)cn2)c1OC` (stereo not drawn) [Example K115], for which the values for the DC50 on TYK2 [1], on TYK2 [2] and at TYK2 [3] were > 100 nM, < 1 nM and < 1 nM, respectively.

Regarding `CNC(=O)c1cnc(Nc2ccc(C(=O)NCCCCCCCCc3cccc4c3n(C)c(=O)n4C3CCC(=O)NC3=O)cn2)cc1Nc1cccc(-c2ncc(F)cn2)c1OC` (stereo not drawn) [Example K116], the DC50 on TYK2 [1] was > 100 nM; on TYK2 [2] it was 1 to 10 nM; on TYK2 [3], 1 to 10 nM.

For `CNC(=O)c1cnc(Nc2cc(C(=O)NCCCCc3ccc4c(c3)n(C)c(=O)n4C3CCC(=O)NC3=O)ccn2)cc1Nc1cccc(-c2ncc(F)cn2)c1OC` (stereo not drawn) [Example K126], the DC50 at TYK2 [1] is > 100 nM; at TYK2 [2] it was > 100 nM; on TYK2 [3] it was < 1 nM.

Take `CNC(=O)c1cnc(Nc2cc(C(=O)NCCCCCCc3ccc4c(c3)n(C)c(=O)n4C3CCC(=O)NC3=O)ccn2)cc1Nc1cccc(-c2ncc(F)cn2)c1OC` (stereo not drawn) [Example K127]: the results for the DC50 at TYK2 [1], at TYK2 [2] and on TYK2 [3] were > 100 nM, > 100 nM and < 1 nM, respectively.

For the compound `CNC(=O)c1cnc(Nc2cc(C(=O)NCCCCc3cccc4c3n(C)c(=O)n4C3CCC(=O)NC3=O)ccn2)cc1Nc1cccc(-c2ncc(F)cn2)c1OC` (stereo not drawn) [Example K128], the DC50 at TYK2 [1] was > 100 nM; at TYK2 [2], > 100 nM; at TYK2 [3] it was 1 to 10 nM.

Consider `CNC(=O)c1cnc(Nc2cc(C(=O)NCCCCCCCCc3ccc4c(c3)n(C)c(=O)n4C3CCC(=O)NC3=O)ccn2)cc1Nc1cccc(-c2ncc(F)cn2)c1OC` (stereo not drawn) [Example K129], for which the DC50 at TYK2 [1] was > 100 nM; on TYK2 [2], 1 to 10 nM; at TYK2 [3], < 1 nM.

As to `CNC(=O)c1cnc(Nc2cc(C(=O)NCCCCCCCCc3cccc4c3n(C)c(=O)n4C3CCC(=O)NC3=O)ccn2)cc1Nc1cccc(-c2ncc(F)cn2)c1OC` (stereo not drawn) [Example K130], the DC50 on TYK2 [1] was > 100 nM; at TYK2 [2] it was 1 to 10 nM; on TYK2 [3], 1 to 10 nM.

As to `CNC(=O)c1cnc(Nc2ccc(C(=O)N(C)C3CCN(c4ccc5c(c4)n(C)c(=O)n5C4CCC(=O)NC4=O)CC3)cn2)cc1Nc1ccccc1OC` (stereo not drawn) [Example K133], the results for the DC50 at TYK2 [1], on TYK2 [2] and on TYK2 [3] were > 100 nM, 1 to 10 nM and > 100 nM, respectively.

For the compound `CNC(=O)c1cnc(Nc2ccc(CN(C)CC3CCN(Cc4cccc5c4n(C)c(=O)n5C4CCC(=O)NC4=O)CC3)cn2)cc1Nc1cccc(-c2ncc(F)cn2)c1OC` (stereo not drawn) [Example K134], the DC50 at TYK2 [1] was > 100 nM; on TYK2 [2], < 1 nM; on TYK2 [3], < 1 nM.

For the compound `CNC(=O)c1cnc(Nc2ccc(CN(C)CC3CCN(c4ccc5c(c4)n(C)c(=O)n5C4CCC(=O)NC4=O)CC3)cn2)cc1Nc1cccc(-c2ncc(F)cn2)c1OC` (stereo not drawn) [Example K135], the DC50 is > 100 nM on TYK2 [1], < 1 nM at TYK2 [2] and < 1 nM on TYK2 [3].

Turning to `CNC(=O)c1cnc(Nc2ccc(CN3CCC(CC#Cc4cccc5c4n(C)c(=O)n5C4CCC(=O)NC4=O)CC3)cn2)cc1Nc1cccc(-c2ncc(F)cn2)c1OC` (stereo not drawn) [Example K136], the DC50 on TYK2 [1] is > 100 nM; on TYK2 [2], < 1 nM; at TYK2 [3] it was 1 to 10 nM.

Take `CNC(=O)c1cnc(Nc2ccc(CN(C)C3CCN(Cc4cccc5c4n(C)c(=O)n5C4CCC(=O)NC4=O)CC3)cn2)cc1Nc1cccc(-c2ncc(F)cn2)c1OC` (stereo not drawn) [Example K137]: the DC50 at TYK2 [1] was > 100 nM; on TYK2 [2] it was < 1 nM; at TYK2 [3], < 1 nM.

Take `CNC(=O)c1cnc(Nc2ccc(CN3CCN(CCc4ccc5c(c4)n(C)c(=O)n5C4CCC(=O)NC4=O)CC3)cn2)cc1Nc1cccc(-c2ncc(F)cn2)c1OC` (stereo not drawn) [Example K138]: the DC50 at TYK2 [1] was > 100 nM; at TYK2 [2], < 1 nM; on TYK2 [3], < 1 nM.

For the compound `CNC(=O)c1cnc(Nc2ccc(CN3CCN(CC4CCN(c5ccc(-c6ccc7c(c6)n(C)c(=O)n7C6CCC(=O)NC6=O)cc5)CC4)CC3)cn2)cc1Nc1cccc(-c2ncc(F)cn2)c1OC` (stereo not drawn) [Example K139], the DC50 on TYK2 [1] is > 100 nM; on TYK2 [2], < 1 nM; at TYK2 [3], < 1 nM.

On to `CNC(=O)c1cnc(Nc2ccc(CN3CCC(N4CC(c5ccc6c(c5)n(C)c(=O)n6C5CCC(=O)NC5=O)C4)CC3)cn2)cc1Nc1cccc(-c2ncc(F)cn2)c1OC` (stereo not drawn) [Example K140], for which the DC50 on TYK2 [1] was > 100 nM; on TYK2 [2], < 1 nM; at TYK2 [3] it was 1 to 10 nM.

On to `CNC(=O)c1cnc(Nc2ccc(CN3CCC(OC4CC(c5cccc6c5n(C)c(=O)n6C5CCC(=O)NC5=O)C4)CC3)cn2)cc1Nc1cccc(-c2ncc(F)cn2)c1OC` (stereo not drawn) [Example K141], for which the figures for the DC50 on TYK2 [1], on TYK2 [2] and on TYK2 [3] were < 1 nM, > 100 nM and < 1 nM, respectively.

On to `CNC(=O)c1cnc(Nc2ccc(CN3CC(C)(Cc4ccc5c(c4)n(C)c(=O)n5C4CCC(=O)NC4=O)C3)cn2)cc1Nc1cccc(-c2ncc(F)cn2)c1OC` (stereo not drawn) [Example K142], for which the DC50 was > 100 nM on TYK2 [1], < 1 nM on TYK2 [2] and 1 to 10 nM at TYK2 [3].

For `CNC(=O)c1cnc(Nc2ccc(CN3CCN(C(=O)CCc4ccc5c(c4)n(C)c(=O)n5C4CCC(=O)NC4=O)CC3)cn2)cc1Nc1cccc(-c2ncc(F)cn2)c1OC` (stereo not drawn) [Example K143], the DC50 on TYK2 [1] is > 100 nM; on TYK2 [2], > 100 nM; at TYK2 [3], < 1 nM.

Consider `CNC(=O)c1cnc(Nc2ccc(CN3CCC4(CC3)CC(Cc3ccc5c(c3)n(C)c(=O)n5C3CCC(=O)NC3=O)C4)cn2)cc1Nc1cccc(-c2ncc(F)cn2)c1OC` (stereo not drawn) [Example K144], for which the DC50 on TYK2 [1] was > 100 nM; on TYK2 [2], < 1 nM; at TYK2 [3], < 1 nM.

`CNC(=O)c1cnc(Nc2ccc(CN3CCCC4(C3)CN(c3ncc(C#Cc5ccc6c(c5)n(C)c(=O)n6C5CCC(=O)NC5=O)cn3)C4)cn2)cc1Nc1cccc(-c2ncc(F)cn2)c1OC` (stereo not drawn) [Example K145]: the DC50 at TYK2 [1] was > 100 nM; at TYK2 [2], 1 to 10 nM; on TYK2 [3], 1 to 10 nM.
